Key:
patients with OCD = experiment: semi-naturalistic open label study of combo pipamperone-citalopram in obsessive-compulsive disorder (Example 4); type: in vivo; settings: pipamperone 16-19 mg/day + citalopram 30-60 mg/day
Experimental: This semi-naturalistic open label study investigates the efficacy and tolerability of the combo pipamperone - citalopram in the treatment of patients with OCD.
Characteristics: patients have an obsessive-compulsive disorder according to DSM-IV criteria, with or without a chronic course and a treatment refractory state towards another SSRI than citalopram.
Treatment with the combo pipamperone-citalopram (n = 7). Treatment with fluvoxamine (controlled release) mean 271 mg/day (n = 253) is according to Hollander et al. (2003).
The intention-to-treat/last-observation-carried-forward analysis is evaluated relating to therapeutic efficacy according Y-BOCS total score, obsession and compulsion scores.

other dopamine receptors = experiment: receptor binding affinity (pKi)
[1] = tested on: patients with major depression; experiment: semi-naturalistic open label study of combo pipamperone-citalopram in major depression (Example 2); type: in vivo
From the text: This semi-naturalistic open label study investigated the efficacy and tolerability of the combo pipamperone - citalopram in the treatment of patients with major depression.
• Design: Semi-naturalistic i.e. inclusion of every 'natural' patient in an outpatient practice but without concomitant use of mood enhancing drugs, open label • Control: No • Phase: Phase IIa - preliminary Proof of Concept • Location: Belgium - Research Centre ANIMA, Alken • End Points : Assessment scale scores, Hamilton Depression Rating Scale 17 items, Reduction, Response, Remission • Medication: Exclusion of mood stabilisers, antipsychotics (typical and atypical) and other antidepressants
Patients have a major depressive disorder according to DSM-IV criteria, with or without a chronic course and a treatment refractory state towards another SSRI than citalopram. […]
Adverse events are assessed on: body as a whole, central and peripheral nervous system, gastrointestinal, musculoskeletal, psychiatric, respiratory, skin and appendages, vascular and urinary, taking into account discontinued treatment due to adverse events. Laboratory parameters, ECG, bodyweight and vital signs are not measured since this is a naturalistic study.

D4 receptor = biological target: T1, D4 receptor (Homo sapiens, UniProt P21917); experiment: receptor binding affinity (pKi); settings: read-out: pKi value towards the D4 receptor (converted)
T1 sequence (P21917 1-419): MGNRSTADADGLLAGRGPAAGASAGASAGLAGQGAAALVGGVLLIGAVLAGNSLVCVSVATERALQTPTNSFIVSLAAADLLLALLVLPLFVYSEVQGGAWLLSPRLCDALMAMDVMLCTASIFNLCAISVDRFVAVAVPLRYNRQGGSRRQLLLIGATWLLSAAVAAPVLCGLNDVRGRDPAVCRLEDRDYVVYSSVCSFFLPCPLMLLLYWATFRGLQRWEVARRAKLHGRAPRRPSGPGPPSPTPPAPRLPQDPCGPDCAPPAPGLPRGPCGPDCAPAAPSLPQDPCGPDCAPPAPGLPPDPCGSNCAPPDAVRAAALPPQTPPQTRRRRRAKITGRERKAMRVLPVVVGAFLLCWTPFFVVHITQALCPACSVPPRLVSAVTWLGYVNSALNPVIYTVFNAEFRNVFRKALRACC

[2] = tested on: adrenergic receptors α-1A, α-2A, α-2B, α-2C, β-1, β-2, and the histamine receptor H1; experiment: receptor binding affinity (Table 1); settings: β-1, β-2 and histamine receptor H1
other 5HT receptors = experiment: receptor binding affinity (pKi)

Q: With `NC(=O)C1(N2CCCCC2)CCN(CCCC(=O)c2ccc(F)cc2)CC1` [pipamperone, 1'-[3-(p-Fluorobenzoyl)propyl]-[1,4'-bipiperidine]-4'-carboxamide] as the molecule, how does the sedative effects (patients with OCD) read?
A: Its sedative effects is “lacking”.

Q: What about the “pKi value towards other dopamine receptors” value (other dopamine receptors) of the same molecule?
A: The value was “less than 8”.

Q: What about the sedative effects ([1]; major depression study, pipamperone 16-19 mg/day) of the same molecule?
A: The sedative effects was “lacking”.

Q: And the “boosting effect on a SSRI (citalopram)” value ([1]; major depression, pipamperone 16-19 mg/day + citalopram 10-20 mg/day, PO, 8 weeks)?
A: The value was “apparent”.

Q: What about the Ki (D4 receptor) of the same molecule?
A: The Ki was ≤ 10 nM.

Q: What about the “affinity for other receptors” value [2] of the same molecule?
A: Its value is “low or absence of affinity”.

Q: What about the “pKi value towards other 5HT receptors” value (other 5HT receptors) of the same molecule?
A: The value was “less than 8”.

Reference: patent publication EP2236157A1 (PharmaNeuroBoost N.V., priority 2009, dated 2010)
